Assay [1] deals with primed spleen and draining lymph node cells. In words: T-cell proliferation (tritium incorporation) of peptide-pool primed spleen and draining lymph node cells re-stimulated in vitro with individual peptides. Conditions: mice immunized with peptide pools, in vitro re-stimulation with the individual peptide. It counts as cell-based, Balb/c mice. The source says: (§1) To define the epitopes more precisely, we divided the 13 peptides, based on the degree of sequence identity between bacterial and the homologous mouse Hsp70s, in three pools (pool A: non-conserved peptides, pool B: conserved peptides comprising at least about 80% amino acid identity to the mouse homologue, and pool C: highly conserved peptides comprising >86% amino acid identity to the mouse homologue, see below) and immunized 10-12 weeks old Balb/c mice twice with a 2 week interval (intraperitoneally and subcutaneously) with the peptide pools. 10 days after the second immunization primed spleen and draining lymph node cells were re-stimulated in vitro with all the 13 individual peptides after which we measured T-cell proliferation (tritium incorporation), IFNγ, IL10, IL4 and IL5 production (cytokine production).

Assay [2] has as its system bacterially primed T-cells. In words: Cross reactivity of bacterial peptide primed T cells with corresponding mouse homologue peptides. The assay is classed as cell-based, Balb/c mice. Conditions: proliferation and cytokine production.
From the text: To test cross-reactivity, i.e. the capacity of selected peptides to induce T cells cross-reactive with homologous self-proteins, the following method can be used (see also Examples):
Any sign of activation (see above) can be taken as an indication of cross-reactivity of the test (e.g. microbial) epitope with the self protein/peptide. Initial testing can be carried out with a synthetic peptide based on the sequence of the self protein/peptide, but final proof for cross-reactivity with the protein/peptide itself, either in isolated form or expressed on cells, is preferably obtained in T cell activation tests with (stressed) antigen presenting cells (over)expressing and presenting the self HSP-peptide, in order to exclude cryptic epitopes.
as §1

The test system of assay [3] is primed spleen and draining lymph node cells. Kind of assay: Cytokine production (IFNγ, IL10, IL4, IL5) of peptide-pool primed spleen and draining lymph node cells re-stimulated in vitro. The assay is classed as cell-based, Balb/c mice. The following applies: mice immunized with peptide pools; in vitro re-stimulation with the individual peptide.
From the text: as §1

Assay [4] relates to human MHC class II molecules. The following applies: human B cell line under stress (nutrient deprivation); peptide of the same sequence; cited from earlier work.

“DEVVAVGAALQAGVL (listed as Mycobacterium tuberculosis) [Peptide B1, mycobacterial hsp70 peptide, pool B (conserved)]”: the T-cell proliferation response result in assay [1] is recorded as “increased”. Moreover, the “Cross-reactivity of bacterially primed T-cells with mouse homologue peptide” value (“Cross-reactivity … with mouse homologue peptide” for short) in assay [2] was “induced cross reactive T cell responses and Yes”. For the same sequence, in assay [3], the IFN-gamma result is reported as “increased” and the IL-10 result was “No”.

As to “KPFQSVIADTGISVS (listed as Mycobacterium tuberculosis) [Peptide A1, mycobacterial hsp70 peptide, pool A (not conserved)]”, the T-cell proliferation response entry in assay [1] is listed as “increased”. Also, the “Cross-reactivity … with mouse homologue peptide” value in assay [2] is reported as “no”. Further, in assay [3], the IFN-gamma result is recorded as “increased” and the IL-10 entry is “augmented”.

Regarding “VLRIVNEPTAAALAY (listed as Mycobacterium tuberculosis) [Peptide C1]”, in assay [1], the T-cell proliferation response result is “increased”. The “Cross-reactivity … with mouse homologue peptide” value in assay [2] is “induced cross reactive T cell responses and yes”. In addition, in assay [3], the IFN-gamma result was “increased” and the IL-10 entry is listed as “augmented”.

With “VLRIINEPTAAAIAY (listed as Mus musculus) [mC1b]”, in assay [4], the “elution from human MHC class II molecules” value is reported as “eluted from human MHC class II molecules”.

These data come from patent US20090118173A1, “TREATMENT AND PREVENTION OF INFLAMMATORY BOWEL DISEASES” (priority 2006, published 2009).
